Measurements from ChEMBL document CHEMBL5465560, “Selectivity Literature for EUbOPEN Chemogenomic Library” (2024).
Values belong to the compound of their own block, whether it stands above or below them.

Assays:
[1] = target: Insulin receptor-related protein (Homo sapiens) (UniProt P14616); experiment: Selectivity interaction (Kinase panel (Z-LYTE Assay)) EUB0001632a INSRR; conditions: at 10 µM
[2] = target: Protein kinase C alpha type (Homo sapiens, UniProt P17252); experiment: Selectivity interaction (Kinase panel (Z-LYTE Assay)) EUB0001632a PRKCA; conditions: at 10 µM
[3] = target: T1, Mitogen-activated protein kinase kinase kinase 13 (Homo sapiens) (UniProt O43283); experiment: Selectivity interaction (KinomeScan (DiscoverX)) EUB0000666a MAP3K13; conditions: at 10 µM
T1 sequence (whole entry): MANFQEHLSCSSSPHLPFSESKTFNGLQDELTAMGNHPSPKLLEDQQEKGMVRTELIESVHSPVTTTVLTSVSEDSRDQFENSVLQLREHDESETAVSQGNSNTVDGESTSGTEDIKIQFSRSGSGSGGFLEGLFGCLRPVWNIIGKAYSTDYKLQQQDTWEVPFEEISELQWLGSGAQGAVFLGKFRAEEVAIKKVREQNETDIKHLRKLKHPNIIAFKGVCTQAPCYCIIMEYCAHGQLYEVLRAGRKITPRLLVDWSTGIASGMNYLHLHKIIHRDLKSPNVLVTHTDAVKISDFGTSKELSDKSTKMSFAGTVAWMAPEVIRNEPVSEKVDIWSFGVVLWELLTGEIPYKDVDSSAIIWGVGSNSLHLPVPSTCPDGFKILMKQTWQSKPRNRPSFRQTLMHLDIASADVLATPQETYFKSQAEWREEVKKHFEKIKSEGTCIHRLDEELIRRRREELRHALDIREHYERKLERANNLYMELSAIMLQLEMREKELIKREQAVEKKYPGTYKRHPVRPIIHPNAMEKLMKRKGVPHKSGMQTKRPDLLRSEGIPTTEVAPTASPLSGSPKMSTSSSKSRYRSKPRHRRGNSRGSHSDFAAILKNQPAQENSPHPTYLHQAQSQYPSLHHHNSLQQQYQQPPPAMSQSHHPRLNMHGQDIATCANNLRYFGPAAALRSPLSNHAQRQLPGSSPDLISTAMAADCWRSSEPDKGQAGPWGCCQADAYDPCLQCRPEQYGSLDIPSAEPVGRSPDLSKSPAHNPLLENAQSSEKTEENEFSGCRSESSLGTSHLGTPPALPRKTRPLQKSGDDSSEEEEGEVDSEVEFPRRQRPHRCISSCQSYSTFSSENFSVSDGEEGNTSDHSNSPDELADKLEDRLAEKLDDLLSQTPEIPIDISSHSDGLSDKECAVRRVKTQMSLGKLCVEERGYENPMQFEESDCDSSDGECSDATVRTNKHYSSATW

[4] = target: Muscarinic acetylcholine receptor M3 (Homo sapiens, UniProt P20309); experiment: Selectivity interaction (GPCR panel (PDSP screen)) EUB0000311b CHRM3; conditions: at 10 µM
Chain of Muscarinic acetylcholine receptor M3 (P20309 whole entry, looked up): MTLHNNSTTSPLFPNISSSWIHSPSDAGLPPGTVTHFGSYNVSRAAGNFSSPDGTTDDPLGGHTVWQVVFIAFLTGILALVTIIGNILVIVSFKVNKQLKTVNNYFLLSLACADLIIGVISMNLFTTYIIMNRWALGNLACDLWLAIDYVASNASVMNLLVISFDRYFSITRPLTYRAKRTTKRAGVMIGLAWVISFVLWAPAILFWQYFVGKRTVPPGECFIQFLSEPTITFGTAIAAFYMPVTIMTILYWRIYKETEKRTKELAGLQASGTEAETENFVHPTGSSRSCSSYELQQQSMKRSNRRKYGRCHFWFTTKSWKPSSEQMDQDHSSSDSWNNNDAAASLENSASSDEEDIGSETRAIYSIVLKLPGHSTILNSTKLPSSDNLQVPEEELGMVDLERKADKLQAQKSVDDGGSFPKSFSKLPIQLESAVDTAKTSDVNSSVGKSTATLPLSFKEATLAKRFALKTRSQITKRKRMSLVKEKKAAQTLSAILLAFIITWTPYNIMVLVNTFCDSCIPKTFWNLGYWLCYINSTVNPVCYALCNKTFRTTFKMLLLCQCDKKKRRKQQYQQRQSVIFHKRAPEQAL

[5] = target: T2, Tyrosine-protein kinase Mer (Homo sapiens) (UniProt Q12866); experiment: Selectivity interaction (Upstate Kinase Profiler service (Millipore)) EUB0000056c MERTK; conditions: at 1 µM
T2 sequence (whole entry): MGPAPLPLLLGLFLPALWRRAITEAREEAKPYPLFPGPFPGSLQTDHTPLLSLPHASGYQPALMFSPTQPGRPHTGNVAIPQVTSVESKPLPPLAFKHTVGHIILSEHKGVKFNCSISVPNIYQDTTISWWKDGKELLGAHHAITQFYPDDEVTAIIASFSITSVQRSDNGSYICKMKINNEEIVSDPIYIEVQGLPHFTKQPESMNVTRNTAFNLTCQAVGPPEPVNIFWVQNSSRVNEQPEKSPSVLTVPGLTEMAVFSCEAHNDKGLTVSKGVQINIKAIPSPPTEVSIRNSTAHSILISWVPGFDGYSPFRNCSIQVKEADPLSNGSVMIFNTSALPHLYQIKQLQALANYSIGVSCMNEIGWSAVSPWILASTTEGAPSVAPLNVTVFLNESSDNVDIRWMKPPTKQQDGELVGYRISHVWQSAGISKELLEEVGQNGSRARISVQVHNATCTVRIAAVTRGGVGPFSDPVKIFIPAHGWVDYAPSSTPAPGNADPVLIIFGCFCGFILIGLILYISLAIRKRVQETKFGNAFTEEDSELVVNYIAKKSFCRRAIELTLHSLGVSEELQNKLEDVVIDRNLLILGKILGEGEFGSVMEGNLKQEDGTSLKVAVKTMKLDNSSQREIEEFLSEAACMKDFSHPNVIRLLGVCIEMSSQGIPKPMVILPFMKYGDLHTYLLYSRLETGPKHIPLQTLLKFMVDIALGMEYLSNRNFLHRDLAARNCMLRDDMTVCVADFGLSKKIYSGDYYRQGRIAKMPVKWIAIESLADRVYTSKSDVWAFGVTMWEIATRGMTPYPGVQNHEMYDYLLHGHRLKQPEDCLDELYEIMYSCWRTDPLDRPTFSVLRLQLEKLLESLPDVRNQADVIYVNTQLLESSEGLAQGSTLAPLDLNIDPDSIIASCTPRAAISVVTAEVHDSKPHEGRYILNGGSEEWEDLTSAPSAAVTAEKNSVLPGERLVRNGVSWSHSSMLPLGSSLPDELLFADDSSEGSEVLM

[6] = target: Ribosomal protein S6 kinase alpha-1 (Homo sapiens, UniProt Q15418); experiment: Selectivity interaction (ActivX KiNativ screen (kinase selectivity in THP-1 cell lysates)) EUB0000639a RPS6KA1; assay type: subcellular; conditions: lysate, at 0.04 µM
Chain of Ribosomal protein S6 kinase alpha-1 (Q15418 whole entry): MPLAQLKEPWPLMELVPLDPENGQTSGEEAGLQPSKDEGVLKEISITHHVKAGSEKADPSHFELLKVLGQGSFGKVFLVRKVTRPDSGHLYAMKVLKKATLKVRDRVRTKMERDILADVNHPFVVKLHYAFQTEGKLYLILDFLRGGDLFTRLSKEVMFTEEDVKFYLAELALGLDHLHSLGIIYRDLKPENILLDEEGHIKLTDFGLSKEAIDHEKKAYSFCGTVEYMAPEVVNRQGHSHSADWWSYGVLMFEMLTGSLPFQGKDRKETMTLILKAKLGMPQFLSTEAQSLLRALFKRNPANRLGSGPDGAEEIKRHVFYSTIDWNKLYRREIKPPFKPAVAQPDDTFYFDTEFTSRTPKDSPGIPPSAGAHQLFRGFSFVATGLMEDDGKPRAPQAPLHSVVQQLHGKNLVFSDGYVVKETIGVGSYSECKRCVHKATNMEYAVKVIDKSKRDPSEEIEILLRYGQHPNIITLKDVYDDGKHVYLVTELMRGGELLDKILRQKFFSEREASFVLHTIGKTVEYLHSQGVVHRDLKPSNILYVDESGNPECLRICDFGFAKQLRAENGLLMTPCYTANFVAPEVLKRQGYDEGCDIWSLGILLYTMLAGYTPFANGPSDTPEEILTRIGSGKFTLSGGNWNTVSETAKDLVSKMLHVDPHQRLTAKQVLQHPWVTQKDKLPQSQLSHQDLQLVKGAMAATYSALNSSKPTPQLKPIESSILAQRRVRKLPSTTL

[7] = target: G protein-coupled receptor kinase 4 (Homo sapiens) (UniProt P32298); experiment: Selectivity interaction (ProQinase) EUB0000171b GRK4
Chain of G protein-coupled receptor kinase 4 (Homo sapiens) (P32298 whole entry, looked up): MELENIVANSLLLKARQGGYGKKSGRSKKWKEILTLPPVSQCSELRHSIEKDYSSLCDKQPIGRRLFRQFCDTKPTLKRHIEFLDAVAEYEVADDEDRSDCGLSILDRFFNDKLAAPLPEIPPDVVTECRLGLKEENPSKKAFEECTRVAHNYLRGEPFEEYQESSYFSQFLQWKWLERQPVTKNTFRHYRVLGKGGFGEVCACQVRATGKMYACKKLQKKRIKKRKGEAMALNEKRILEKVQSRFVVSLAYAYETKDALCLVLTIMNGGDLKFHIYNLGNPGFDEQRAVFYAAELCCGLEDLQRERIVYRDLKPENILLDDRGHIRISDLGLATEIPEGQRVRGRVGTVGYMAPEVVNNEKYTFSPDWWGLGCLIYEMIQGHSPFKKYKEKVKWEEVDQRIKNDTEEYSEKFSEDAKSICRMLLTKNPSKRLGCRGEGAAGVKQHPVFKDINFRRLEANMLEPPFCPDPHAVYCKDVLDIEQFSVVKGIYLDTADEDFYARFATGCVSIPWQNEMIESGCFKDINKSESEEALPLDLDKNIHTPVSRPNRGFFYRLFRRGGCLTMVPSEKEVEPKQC

[8] = target: Tyrosine-protein kinase SYK (Homo sapiens, UniProt P43405); experiment: Selectivity interaction (KinomeScan (DiscoverX)) EUB0001049a SYK; conditions: at 1 µM
[9] = target: Mitogen-activated protein kinase kinase kinase kinase 4 (Homo sapiens, UniProt O95819); experiment: Selectivity interaction (KinomeScan (DiscoverX)) EUB0000229b MAP4K4; conditions: at 10 µM
Chain of Mitogen-activated protein kinase kinase kinase kinase 4 (O95819 2-1239 limits assumed): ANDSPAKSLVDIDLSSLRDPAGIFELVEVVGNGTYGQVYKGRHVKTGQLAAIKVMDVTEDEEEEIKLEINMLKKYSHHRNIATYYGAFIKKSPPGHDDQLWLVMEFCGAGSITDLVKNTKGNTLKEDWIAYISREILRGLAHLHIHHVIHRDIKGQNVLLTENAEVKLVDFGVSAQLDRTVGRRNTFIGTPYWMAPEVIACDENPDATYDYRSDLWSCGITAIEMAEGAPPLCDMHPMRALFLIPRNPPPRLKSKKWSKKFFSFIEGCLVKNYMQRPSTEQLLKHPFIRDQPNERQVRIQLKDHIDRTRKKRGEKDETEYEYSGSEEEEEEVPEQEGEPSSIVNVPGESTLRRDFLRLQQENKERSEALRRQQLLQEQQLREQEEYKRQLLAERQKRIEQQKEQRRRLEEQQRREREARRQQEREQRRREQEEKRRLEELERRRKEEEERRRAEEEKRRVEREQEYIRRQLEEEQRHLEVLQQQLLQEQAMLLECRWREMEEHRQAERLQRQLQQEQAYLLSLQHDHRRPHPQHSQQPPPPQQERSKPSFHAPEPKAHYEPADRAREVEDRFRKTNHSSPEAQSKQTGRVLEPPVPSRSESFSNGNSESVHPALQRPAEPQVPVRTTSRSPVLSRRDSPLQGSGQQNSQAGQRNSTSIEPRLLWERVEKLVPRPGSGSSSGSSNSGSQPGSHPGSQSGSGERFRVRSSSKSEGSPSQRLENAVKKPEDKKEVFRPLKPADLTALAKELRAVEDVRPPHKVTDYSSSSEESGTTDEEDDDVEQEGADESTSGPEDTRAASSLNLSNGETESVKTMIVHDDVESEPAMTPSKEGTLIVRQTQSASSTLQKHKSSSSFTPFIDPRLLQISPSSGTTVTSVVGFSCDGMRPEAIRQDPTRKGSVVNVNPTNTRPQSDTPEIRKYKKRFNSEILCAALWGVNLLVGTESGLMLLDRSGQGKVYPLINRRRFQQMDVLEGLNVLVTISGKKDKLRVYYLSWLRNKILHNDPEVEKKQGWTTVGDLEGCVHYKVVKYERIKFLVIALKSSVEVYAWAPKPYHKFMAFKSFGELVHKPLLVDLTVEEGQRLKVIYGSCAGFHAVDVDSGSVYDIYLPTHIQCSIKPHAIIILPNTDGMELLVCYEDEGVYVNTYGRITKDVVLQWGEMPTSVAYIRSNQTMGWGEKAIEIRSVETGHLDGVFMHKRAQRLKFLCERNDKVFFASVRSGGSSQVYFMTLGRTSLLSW

Compound: Cn1cc(-n2cnc3c(NCc4nc5cc(Cl)c(Cl)cc5[nH]4)nc(N4CCOCC4)nc32)cn1
% of control [1]: 0.348%
% of control [2]: 1.16%

Compound: O=C(NOC[C@H](O)CO)c1ccc(F)c(F)c1Nc1ccc(I)cc1F
% of control [3]: 86%

Compound: CC[C@@H]1[C@H](F)C(=O)N[C@@H]1COc1nccc2cc(C(N)=O)c(OC)cc12 [ZIMLOVISERTIB]
% of inhibition [6]: 6.3%

Compound: COc1cc(Nc2nc(C)cc(-c3cnn4nc(OC)ccc34)n2)cc(C(F)(F)F)c1
% of control [8]: 100%

Compound: COc1cc(N(C)c2ccnc3ccc(C(F)(F)F)cc23)cc(OC)c1OC
% binding [9]: 86%

The next lines start with the values.

% of inhibition [4]: 22.5%
Compound: CCc1ccccc1C(=O)Nc1n[nH]c2c(C)c(F)c(C3C(C#N)=C(C)N(C)C(C)=C3C#N)cc12 [BAY-3827]

% of inhibition [5]: 97%
Compound: Cc1ccc(-c2ccc3c(ccc4sc5c(c43)NC[C@@H](C)NC5=O)n2)cn1

% of control ([7]; at 1 µM): 101%
% of control ([7]; at 5 µM): 97%
Compound: C=CC(=O)Nc1cccc(C(=O)Nc2ccc(Nc3cc(-c4[nH]c(SC)nc4C)ccn3)cc2)c1
